How the values were obtained:
Experiment in all cases: relative viability (nuclei count vs DMSO), 5 days (fraction); higher = more cells survive
[1] = test system: 201T
Method in brief: (§1)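 Relative viability equals treated-well nuclei counts divided by vehicle-well nuclei counts. Counts came from 4× images of lung cancer cell lines grown in 1536-well plates for 5 days after pin-tool dosing on the day after seeding. Dosing used one drug alone or a fixed anchor-drug dose plus five library-drug doses (not always all listed) in √10 steps, and values are medians of duplicate plates.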

[2] = test system: CAL-12T
Method in brief: as §1

[3] = test system: COR-L 105
Method in brief: as §1

[4] = test system: EKVX
Method in brief: as §1

[5] = test system: EPLC-272H
Method in brief: as §1

[6] = test system: H3255
Method in brief: as §1

[7] = test system: HCC-15
Method in brief: as §1

[8] = test system: HCC-44
Method in brief: as §1

[9] = test system: HCC-827
Method in brief: as §1

[10] = test system: HOP-62
Method in brief: as §1

[11] = test system: LCLC-103H
Method in brief: as §1

[12] = test system: NCI-H1355
Method in brief: as §1

[13] = test system: NCI-H1437
Method in brief: as §1

[14] = test system: NCI-H1755
Method in brief: as §1

[15] = test system: NCI-H1793
Method in brief: as §1

[16] = test system: NCI-H2009
Method in brief: as §1

[17] = test system: NCI-H322M
Method in brief: as §1

[18] = test system: NCI-H441
Method in brief: as §1

[19] = test system: NCI-H520
Method in brief: as §1

[20] = test system: NCI-H522
Method in brief: as §1

[21] = test system: NCI-H596
Method in brief: as §1

[22] = test system: NCI-H647
Method in brief: as §1

[23] = test system: PC-3 [JPC-3]
Method in brief: as §1

[24] = test system: SK-LU-1
Method in brief: as §1

[25] = test system: UMC-11
Method in brief: as §1

Question: How did the relative viability ([1]; first compound 0.253 µM) turn out when Nc1cccc2c1CN(C1CCC(=O)NC1=O)C2=O (centres undefined) [Lenalidomide] + Cc1cc(Nc2cc(N3CCN(C)CC3)nc(Sc3ccc(NC(=O)C4CC4)cc3)n2)n[nH]1 [Tozasertib] (partner 0.1 µM) was run?
Answer: 1.01

Question: And the relative viability ([1]; first compound 2.53 µM)?
Answer: 1.02

Question: And the relative viability ([1]; first compound 8 µM)?
Answer: 1.02

Question: What about the relative viability ([2]; first compound 0.253 µM) of the same molecule?
Answer: 0.3

Question: What about the relative viability ([2]; first compound 0.8 µM) of the same molecule?
Answer: 0.302

Question: And the relative viability ([2]; first compound 2.53 µM)?
Answer: 0.463

Question: And the relative viability ([2]; first compound 8 µM)?
Answer: 0.352

Question: What about the relative viability ([3]; first compound 0.253 µM) of the same molecule?
Answer: 0.351

Question: And the relative viability ([3]; first compound 0.8 µM)?
Answer: 0.31

Question: What about the relative viability ([3]; first compound 2.53 µM) of the same molecule?
Answer: 0.402

Question: What about the relative viability ([3]; first compound 8 µM) of the same molecule?
Answer: 0.373

Question: What about the relative viability ([4]; first compound 0.253 µM) of the same molecule?
Answer: 0.396

Question: And the relative viability ([4]; first compound 0.8 µM)?
Answer: 0.41

Question: And the relative viability ([4]; first compound 2.53 µM)?
Answer: 0.415

Question: And the relative viability ([4]; first compound 8 µM)?
Answer: 0.372

Question: What about the relative viability ([5]; first compound 0.253 µM) of the same molecule?
Answer: 0.343

Question: What about the relative viability ([5]; first compound 0.8 µM) of the same molecule?
Answer: 0.229

Question: And the relative viability ([5]; first compound 2.53 µM)?
Answer: 0.349

Question: What about the relative viability ([5]; first compound 8 µM) of the same molecule?
Answer: 0.256

Question: And the relative viability ([6]; first compound 0.253 µM)?
Answer: 0.602

Question: What about the relative viability ([6]; first compound 0.8 µM) of the same molecule?
Answer: 0.79

Question: And the relative viability ([6]; first compound 2.53 µM)?
Answer: 0.662

Question: What about the relative viability ([6]; first compound 8 µM) of the same molecule?
Answer: 0.536

Question: And the relative viability ([7]; first compound 0.253 µM)?
Answer: 0.352

Question: And the relative viability ([7]; first compound 0.8 µM)?
Answer: 0.431

Question: And the relative viability ([7]; first compound 2.53 µM)?
Answer: 0.446

Question: And the relative viability ([7]; first compound 8 µM)?
Answer: 0.496

Question: What about the relative viability ([8]; first compound 0.253 µM) of the same molecule?
Answer: 0.886

Question: And the relative viability ([8]; first compound 2.53 µM)?
Answer: 1.22

Question: And the relative viability ([8]; first compound 8 µM)?
Answer: 1.12

Question: What about the relative viability ([9]; first compound 0.253 µM) of the same molecule?
Answer: 0.47

Question: What about the relative viability ([9]; first compound 0.8 µM) of the same molecule?
Answer: 0.41

Question: And the relative viability ([9]; first compound 2.53 µM)?
Answer: 0.455

Question: What about the relative viability ([9]; first compound 8 µM) of the same molecule?
Answer: 0.462

Question: And the relative viability ([10]; first compound 0.253 µM)?
Answer: 0.359

Question: And the relative viability ([10]; first compound 0.8 µM)?
Answer: 0.41

Question: What about the relative viability ([10]; first compound 2.53 µM) of the same molecule?
Answer: 0.352

Question: And the relative viability ([10]; first compound 8 µM)?
Answer: 0.405

Question: And the relative viability ([11]; first compound 0.253 µM)?
Answer: 0.47

Question: And the relative viability ([11]; first compound 0.8 µM)?
Answer: 0.517

Question: And the relative viability ([11]; first compound 2.53 µM)?
Answer: 0.644

Question: What about the relative viability ([11]; first compound 8 µM) of the same molecule?
Answer: 0.566

Question: And the relative viability ([12]; first compound 0.253 µM)?
Answer: 0.578

Question: And the relative viability ([12]; first compound 2.53 µM)?
Answer: 0.559

Question: And the relative viability ([12]; first compound 8 µM)?
Answer: 0.59

Question: What about the relative viability ([13]; first compound 0.253 µM) of the same molecule?
Answer: 0.432

Question: What about the relative viability ([13]; first compound 0.8 µM) of the same molecule?
Answer: 0.443

Question: And the relative viability ([13]; first compound 2.53 µM)?
Answer: 0.441

Question: What about the relative viability ([13]; first compound 8 µM) of the same molecule?
Answer: 0.47

Question: And the relative viability ([14]; first compound 0.253 µM)?
Answer: 0.638

Question: And the relative viability ([14]; first compound 0.8 µM)?
Answer: 0.614

Question: And the relative viability ([14]; first compound 2.53 µM)?
Answer: 0.597

Question: What about the relative viability ([14]; first compound 8 µM) of the same molecule?
Answer: 0.541

Question: And the relative viability ([15]; first compound 0.253 µM)?
Answer: 0.356

Question: And the relative viability ([15]; first compound 2.53 µM)?
Answer: 0.383

Question: What about the relative viability ([15]; first compound 8 µM) of the same molecule?
Answer: 0.349

Question: And the relative viability ([16]; first compound 0.253 µM)?
Answer: 0.776

Question: What about the relative viability ([16]; first compound 0.8 µM) of the same molecule?
Answer: 0.761

Question: What about the relative viability ([16]; first compound 2.53 µM) of the same molecule?
Answer: 0.836

Question: And the relative viability ([16]; first compound 8 µM)?
Answer: 0.847

Question: What about the relative viability ([17]; first compound 0.253 µM) of the same molecule?
Answer: 0.471

Question: And the relative viability ([17]; first compound 0.8 µM)?
Answer: 0.566

Question: And the relative viability ([17]; first compound 2.53 µM)?
Answer: 0.49

Question: And the relative viability ([17]; first compound 8 µM)?
Answer: 0.439

Question: And the relative viability ([18]; first compound 0.253 µM)?
Answer: 0.72

Question: What about the relative viability ([18]; first compound 0.8 µM) of the same molecule?
Answer: 0.572

Question: What about the relative viability ([18]; first compound 2.53 µM) of the same molecule?
Answer: 0.621

Question: What about the relative viability ([18]; first compound 8 µM) of the same molecule?
Answer: 0.522

Question: What about the relative viability ([19]; first compound 0.253 µM) of the same molecule?
Answer: 0.429

Question: And the relative viability ([19]; first compound 0.8 µM)?
Answer: 0.461

Question: What about the relative viability ([19]; first compound 2.53 µM) of the same molecule?
Answer: 0.468

Question: What about the relative viability ([19]; first compound 8 µM) of the same molecule?
Answer: 0.374

Question: What about the relative viability ([20]; first compound 0.253 µM) of the same molecule?
Answer: 0.574

Question: What about the relative viability ([20]; first compound 2.53 µM) of the same molecule?
Answer: 0.52

Question: What about the relative viability ([20]; first compound 8 µM) of the same molecule?
Answer: 0.511

Question: What about the relative viability ([21]; first compound 0.253 µM) of the same molecule?
Answer: 0.755

Question: What about the relative viability ([21]; first compound 2.53 µM) of the same molecule?
Answer: 0.904

Question: And the relative viability ([21]; first compound 8 µM)?
Answer: 0.774

Question: What about the relative viability ([22]; first compound 0.253 µM) of the same molecule?
Answer: 0.339

Question: What about the relative viability ([22]; first compound 0.8 µM) of the same molecule?
Answer: 0.27

Question: And the relative viability ([22]; first compound 2.53 µM)?
Answer: 0.26

Question: And the relative viability ([22]; first compound 8 µM)?
Answer: 0.355

Question: What about the relative viability ([23]; first compound 0.253 µM) of the same molecule?
Answer: 0.909

Question: And the relative viability ([23]; first compound 0.8 µM)?
Answer: 0.899

Question: And the relative viability ([23]; first compound 2.53 µM)?
Answer: 1.03

Question: And the relative viability ([23]; first compound 8 µM)?
Answer: 0.955

Question: What about the relative viability ([24]; first compound 0.253 µM) of the same molecule?
Answer: 0.376

Question: And the relative viability ([24]; first compound 0.8 µM)?
Answer: 0.304

Question: What about the relative viability ([24]; first compound 2.53 µM) of the same molecule?
Answer: 0.399

Question: And the relative viability ([24]; first compound 8 µM)?
Answer: 0.392

Question: And the relative viability ([25]; first compound 0.253 µM)?
Answer: 0.192

Question: What about the relative viability ([25]; first compound 0.8 µM) of the same molecule?
Answer: 0.21

Question: And the relative viability ([25]; first compound 2.53 µM)?
Answer: 0.192

Question: And the relative viability ([25]; first compound 8 µM)?
Answer: 0.195
